Results taken from US20040009243A1, “Cancer preventive composition comprising ginsenoside glycosides of red ginseng” (priority 2002, published 2004).
“Also recorded” adds a separate entry of the source. Read-outs that look alike come from different tables or passages of the source.

Experiments:
[1] = test system: lung adenoma induced by benzo(a)pyrene; test: 9-weeks medium-term anticarcinogenicity test of ginsenosides (Experiment 1); type: in vivo, NIH(GP) mice; settings: for incidence of lung adenoma on the average: BP 0.5 mg plus ginsenoside; for incidence of lung adenoma on the average / Incidence (lung adenoma), treatment alone without BP: sacrifice 9th week; for incidence of lung adenoma on the average / Incidence, number of mice with lung adenoma / Incidence, value in parentheses (percent of mice with lung adenoma) / Multiplicity (Mean ± S.D.): BP line = carcinogen alone; for Incidence, number of mice with lung adenoma / Incidence, value in parentheses (percent of mice with lung adenoma) / Multiplicity (Mean ± S.D.): BP 0.5 mg/head + ginsenoside 80 μg/ml; for Incidence (lung adenoma), treatment alone without BP: red ginseng extract 2 mg/ml, ginsenosides 80 μg/ml in drinking water, 6 weeks; for lung adenoma in groups treated singularly, without BP (in words): treatment alone, 9 weeks
Text: 1) Experimental animal: In this experiment newborn non-inbred strain NIH(GP) mice were used. Each experimental animal was in a breeding chamber maintained at constant temperature and humidity and, after weaning, given a solid feed prepared according to the NIH-7 open formula. The experimental animals were allowed to freely take drinking water and diet.
2) Establishment of the test groups: The test groups were a total of 10 groups including the normal control group, the ginsenoside Rg3 treatment group, the ginsenoside Rg5 group, the ginsenoside Rh1 group, the ginsenoside Rh2 group, the BP 0.5 mg group, the BP plus ginsenoside Rg3 group, the BP plus ginsenoside Rg5 group, the BP plus ginsenoside Rh1 group, and the BP plus ginsenoside Rh2 group, wherein 25 to 30 newborn mouse, female and male respectively, were used in each group.
3) Chemical carcinogen: As the chemical carcinogen, benzo(a)pyrene (BP: Sigma Chemical Co.) was used. The given amount of BP was suspended in 1% aqueous gelatin solution and then injected subcutaneously in the subscapular region once in an amount of 0.02 cc (0.5 mg).
4) Administration of respective ginsenosides: Respective ginsenosides, i.e. ginsenoside Rg3, ginsenoside Rg5, ginsenoside Rh1 and ginsenoside Rh2 were suspended in drinking water to 80 μg/ml and daily administered from the 3rd week to 9 th week after birth, i.e. during the period of 6 weeks.
5) Monitoring and sacrifice of experimental animals: The appearance of mice was monitored every time at which the feed and drinking water were changed, beginning from weaning at the 3th week after birth. Mice were weighed at intervals of one week and sacrificed at the 9th week after birth and then subjected to autopsy.
6) Pathological investigation: Immediately after autopsy, lungs were exposed to observe the presence or absence of nodules of lung adenoma, and at the same time, to observe the presence or absence of any lesion in respective main organs by the naked eye. Then lungs were fixed in Tellyesniczky solution and the other main organs were fixed in 10% neutral formalin solution, cut and then examined with a microscope. After fixing of lungs, nodules of long adenoma were counted by the naked eye. Then lungs were cut as in case of other main organs, stained with hematoxylin-eosin and then investigated to find nodules of lung adenoma.
7) Statistical treatment: The comparisons of the calculated lung adenoma incidence in respective test groups were made using the Chi-square test and the comparisons of multiplicity were made using Student's t test to obtain P-value.

male ICR mice = test: acute toxicity test (Experiment 2); type: in vivo; settings: for autopsy examination, macroscopic (in words) / dead animals (in words): 1000 mg/kg oral, once; for autopsy examination, macroscopic (in words): 14th day after administration; for dead animals (in words): observed for 14 days; for acute toxicity / toxicity (in words): mice, oral route, 1000 mg/kg
Protocol: 20 male ICR mice weighing 26-30 grams were used in each test group to conduct the acute toxicity test of ginsenosides Rg3, Rg5 and Rh2. Specifically, each of ginsenosides Rg3, Rg5 and Rh2 was prepared in 0.5% Tween 80 as the solvent to the concentration of 100 mg/ml and then orally administered to mice once in an amount of 0.2 ml per 20 grams of body weight. The control group was given only 0.5% Tween 80 solvent via oral route. […] Further, on 14th day after administration the animals were sacrificed and then autopsied to examine macroscopically the main organs.

[2] = test system: mouse pulmonary adenoma induced by benzo(a)pyrene; settings: BP + ginseng of given age, BP line = carcinogen alone, cited from earlier work

CC(C)=CC/C=C(\C)[C@H]1CC[C@]2(C)[C@@H]1[C@H](O)C[C@@H]1[C@@]3(C)CC[C@H](O[C@@H]4O[C@H](CO)[C@@H](O)[C@H](O)[C@H]4O[C@@H]4O[C@H](CO)[C@@H](O)[C@H](O)[C@H]4O)C(C)(C)[C@@H]3CC[C@]12C [Ginsenoside Rg5, ginsenoside Rg5]
incidence of lung adenoma on the average [1]: 45.0% | Incidence, number of mice with lung adenoma ([1]; Sex F): 14 | Incidence, value in parentheses (percent of mice with lung adenoma) ([1]; Sex F): 46.7 | Multiplicity (Mean ± S.D.) ([1]; Sex F): 1.33 ± 2.89 | Incidence (lung adenoma), treatment alone without BP ([1]; Sex F): 0 | Incidence, number of mice with lung adenoma ([1]; Sex M + F): 27 | Incidence, value in parentheses (percent of mice with lung adenoma) ([1]; Sex M + F): 45.0 | Multiplicity (Mean ± S.D.) ([1]; Sex M + F): 1.08 ± 2.21 | Incidence (lung adenoma), treatment alone without BP ([1]; Sex M + F): 0 | Incidence, number of mice with lung adenoma ([1]; Sex M): 13 | Incidence, value in parentheses (percent of mice with lung adenoma) ([1]; Sex M): 43.3 | Multiplicity (Mean ± S.D.) ([1]; Sex M): 0.83 ± 1.21 | Incidence (lung adenoma), treatment alone without BP ([1]; Sex M): 0 | lung adenoma in groups treated singularly, without BP (in words) [1]: did never occur lung adenoma | autopsy examination, macroscopic (in words) (male ICR mice): no special pathological finding | dead animals (in words) (male ICR mice): no dead animal was observed | acute toxicity / toxicity (in words) (male ICR mice): did not exhibit any acute toxicity; also recorded: have no toxicity

CC(C)=CCC[C@](C)(O)[C@H]1CC[C@]2(C)[C@@H]1[C@H](O)C[C@@H]1[C@@]3(C)CC[C@H](O)C(C)(C)[C@@H]3[C@@H](O[C@@H]3O[C@H](CO)[C@@H](O)[C@H](O)[C@H]3O)C[C@]12C [Ginsenoside Rh1, ginsenoside Rh1, reference compound]
Incidence, number of mice with lung adenoma ([1]; Sex F): 16 | Incidence, value in parentheses (percent of mice with lung adenoma) ([1]; Sex F): 53.3 | Multiplicity (Mean ± S.D.) ([1]; Sex F): 1.49 ± 1.86 | Incidence, number of mice with lung adenoma ([1]; Sex M + F): 31 | Incidence, value in parentheses (percent of mice with lung adenoma) ([1]; Sex M + F): 51.7 | Multiplicity (Mean ± S.D.) ([1]; Sex M + F): 1.03 ± 1.27 | Incidence, number of mice with lung adenoma ([1]; Sex M): 15 | Incidence, value in parentheses (percent of mice with lung adenoma) ([1]; Sex M): 50.0 | Multiplicity (Mean ± S.D.) ([1]; Sex M): 1.20 ± 1.54 | lung adenoma in groups treated singularly, without BP (in words) [1]: did never occur lung adenoma

CC(C)=CCC[C@](C)(O)[C@H]1CC[C@]2(C)[C@@H]1[C@H](O)C[C@@H]1[C@@]3(C)CC[C@H](O[C@@H]4O[C@H](CO)[C@@H](O)[C@H](O)[C@H]4O[C@@H]4O[C@H](CO)[C@@H](O)[C@H](O)[C@H]4O)C(C)(C)[C@@H]3CC[C@]12C [Ginsenoside Rg3, ginsenoside Rg3]
incidence of lung adenoma on the average [1]: 46.7% | Incidence, number of mice with lung adenoma ([1]; Sex F): 15 | Incidence, value in parentheses (percent of mice with lung adenoma) ([1]; Sex F): 50.0 | Multiplicity (Mean ± S.D.) ([1]; Sex F): 1.03 ± 1.27 | Incidence (lung adenoma), treatment alone without BP ([1]; Sex F): 0 | Incidence, number of mice with lung adenoma ([1]; Sex M + F): 28 | Incidence, value in parentheses (percent of mice with lung adenoma) ([1]; Sex M + F): 46.7 | Multiplicity (Mean ± S.D.) ([1]; Sex M + F): 0.85 ± 1.13 | Incidence (lung adenoma), treatment alone without BP ([1]; Sex M + F): 0 | Incidence, number of mice with lung adenoma ([1]; Sex M): 13 | Incidence, value in parentheses (percent of mice with lung adenoma) ([1]; Sex M): 43.3 | Multiplicity (Mean ± S.D.) ([1]; Sex M): 0.67 ± 0.96 | Incidence (lung adenoma), treatment alone without BP ([1]; Sex M): 0 | lung adenoma in groups treated singularly, without BP (in words) [1]: did never occur lung adenoma | autopsy examination, macroscopic (in words) (male ICR mice): no special pathological finding | dead animals (in words) (male ICR mice): no dead animal was observed | acute toxicity / toxicity (in words) (male ICR mice): did not exhibit any acute toxicity; also recorded: have no toxicity

c1ccc2c(c1)cc1ccc3cccc4ccc2c1c34 [Benzo(a)pyrene (BP), benzo(a)pyrene, reference compound]
incidence of lung adenoma on the average [1]: 60% | Incidence, number of mice with lung adenoma ([1]; Sex F): 16 | Incidence, value in parentheses (percent of mice with lung adenoma) ([1]; Sex F): 64.0 | Multiplicity (Mean ± S.D.) ([1]; Sex F): 1.80 ± 2.12 | Incidence, number of mice with lung adenoma ([1]; Sex M + F): 30 | Incidence, value in parentheses (percent of mice with lung adenoma) ([1]; Sex M + F): 60.0 | Multiplicity (Mean ± S.D.) ([1]; Sex M + F): 1.50 ± 1.82 | Incidence, number of mice with lung adenoma ([1]; Sex M): 14 | Incidence, value in parentheses (percent of mice with lung adenoma) ([1]; Sex M): 56.0 | Multiplicity (Mean ± S.D.) ([1]; Sex M): 1.20 ± 1.44 | Incidence of lung adenoma ([2]; Fresh ginseng Extract series): 63.9 | Incidence of lung adenoma ([2]; Fresh ginseng Powder series): 41.3 | Incidence of lung adenoma ([2]; Red ginseng Extract series): 47.5 | Incidence of lung adenoma ([2]; Red ginseng powder series): 48.6 | Incidence of lung adenoma ([2]; White ginseng Powder series): 45.0 | Incidence of lung adenoma ([2]; White ginseng extract series): 41.3

CC(C)=CCC[C@](C)(O)[C@H]1CC[C@]2(C)[C@@H]1[C@H](O)C[C@@H]1[C@@]3(C)CC[C@H](O[C@@H]4O[C@H](CO)[C@@H](O)[C@H](O)[C@H]4O)C(C)(C)[C@@H]3CC[C@]12C [Ginsenoside Rh2, ginsenoside Rh2]
incidence of lung adenoma on the average [1]: 48.3% | Incidence, number of mice with lung adenoma ([1]; Sex F): 16 | Incidence, value in parentheses (percent of mice with lung adenoma) ([1]; Sex F): 53.3 | Multiplicity (Mean ± S.D.) ([1]; Sex F): 1.53 ± 1.93 | Incidence (lung adenoma), treatment alone without BP ([1]; Sex F): 0 | Incidence, number of mice with lung adenoma ([1]; Sex M + F): 29 | Incidence, value in parentheses (percent of mice with lung adenoma) ([1]; Sex M + F): 48.3 | Multiplicity (Mean ± S.D.) ([1]; Sex M + F): 1.15 ± 1.61 | Incidence (lung adenoma), treatment alone without BP ([1]; Sex M + F): 0 | Incidence, number of mice with lung adenoma ([1]; Sex M): 13 | Incidence, value in parentheses (percent of mice with lung adenoma) ([1]; Sex M): 43.3 | Multiplicity (Mean ± S.D.) ([1]; Sex M): 0.77 ± 1.14 | Incidence (lung adenoma), treatment alone without BP ([1]; Sex M): 0 | lung adenoma in groups treated singularly, without BP (in words) [1]: did never occur lung adenoma | autopsy examination, macroscopic (in words) (male ICR mice): no special pathological finding | dead animals (in words) (male ICR mice): no dead animal was observed | acute toxicity / toxicity (in words) (male ICR mice): did not exhibit any acute toxicity; also recorded: have no toxicity
